The values below come from patent US12491187B2, “Use of MCT1 inhibitors to enhance insulin sensitivity” (H. LEE MOFFIT CANCER CENTER AND RESEARCH INSTITUTE, INC., priority 2022, dated 2025).

Holding throughout (type): cell-based, murine
The test system of one test is preadipocytes (3T3-L1). As to the kind of experiment: Proliferation (CyQUANT NF) of preadipocytes. As to conditions: 72 hr.
Test [1] has as its system differentiated 3T3-L1 adipocytes. As to the kind of experiment: Intracellular pyruvate (Amplite fluorimetric assay). The note with it: 1 μM. On the procedure: Intracellular Pyruvate: Intracellular pyruvate was measured using the Amplite™ Fluorimetric Pyruvate Assay Kit (AAT Bioquest) according to the manufacturer's instructions. 3T3-L1 cells were seeded and differentiated in white clear bottom 96-well plates (Corning®). After differentiation, cells were treated with compound or vehicle as indicated. Following 15 min, 30 min, 1 hr, 4 hr, 8 hr or 24 hr incubation with 1 μM AZD6965, media was removed, and cells were lysed with ReadiUse™ mammalian cell lysis buffer (AAT Bioquest). Lysates were then subjected to an enzyme-coupled reaction with the Quest Fluor™ Pyruvate Sensor resulting in an […] detected at 575 nm which is proportional to the quantity of pyruvate within the sample. Absorbance was read on a spectrophotometer (FlexStation 3; Molecular Devices).

The test system is the same in test [2]. The test is described as follows: Hyperplasia (intracellular triglycerides, Triglyceride-Glo). As for the experimental part:
Hyperplasia (Intracellular Triglycerides): 3T3-L1 cells were seeded and differentiated in clear bottom 96-well plates (Corning®). After differentiation, cells were treated with or without 1 μM AZD3965 for 24 hr, 48 hr or 72 hr. After compound incubation, media was changed to normal growth media with or without 100 nM insulin and cultured for an additional 72 hrs. Upon completion of the second incubation period, adipocytes were lysed and subjected to the Triglyceride-Glo™ Assay (Promega®) according to the manufacturer's instructions. The luminescent signal produced is proportional to the amount of triglycerides detected within the sample. Luminescence was read on a spectrophotometer (FlexStation 3; Molecular Devices).

In a further test the test system is 3T3-L1-shScramble cells. The test is described as follows: Glucose uptake (Glucose Uptake-Glo) in shScramble control cells. As to conditions: 1 μM for 72 hr, 175 nM insulin. As for the experimental part:
Cell Line Development: Lenti plasmid vectors containing shRNA targeting MCT1 or a shScramble sequence were purchased from Genocopia. Lentiviral particles were produced using HEK293T cells and a third-generation packaging system, MISSION Lentiviral Packaging Mix, as per manufacturer's (Sigma-Aldrich) recommendations. To generate shMCT1 cells, 3T3-L1 cells were seeded and transduced with optimized titers of freshly harvested lentivirus. 12 hr after transduction, medium was changed, and cells were allowed to recover for 24 h before being placed under antibiotic selection (2 μg/mL puromycin [Clontech]) for 3-6 days. Cells surviving antibiotic selection were harvested for both reverse transcription quantitative chain polymerase reaction (RT-qPCR) and immunoblotting analyses.
Glucose Uptake: 3T3-L1 cells were seeded and differentiated in clear bottom 96-well plates (Corning®). After differentiation, cells were treated with or without […] AZD3965 for 24 hr, 48 hr or 72 hr as illustrated in FIG. 7 (schematic outline of experimental procedure). The cells were incubated in serum free media the night before performing the assay. […] Glucose Uptake was measured using the Glucose Uptake-Glo™ Assay (Promega®) according to the manufacturer's protocol. The data generated were normalized by dividing the relative luminescence units (RLU) measured in insulin stimulated wells by vehicle treated controls. […]

In test [3] the test system is differentiated 3T3-L1 cells. The test is described as follows: Lipolysis (intracellular glycerol, Glycerol-Glo). The note with it: 1 μM, all time points measured (24, 48, 72 hr). On the procedure:
Lipolysis (Intracellular Glycerol): 3T3-L1 cells were seeded, differentiated and treated with or without AZD3965 (1 μM) for up to 72 hr in clear 96 well plates (Corning®). After media removal and washing cells with PBS, the Glycerol-Glo™ (Promega®) assay kit was used to assess changes in lipolysis through the quantification of intracellular glycerol according to the manufacturer's instructions. A luminescent signal is produced that is proportional to the amount of glycerol within the sample Luminescence was read on a spectrophotometer (FlexStation 3; Molecular Devices).

Regarding `Cc1[nH]nc(C(F)(F)F)c1Cc1sc2c(c1C(=O)N1C[C@](C)(O)CO1)c(=O)n(C)c(=O)n2C(C)C` [AZD3965, 5-[[(4S)-4-hydroxy-4-methyl-2-isoxazolidinyl]carbonyl]-3-methyl-1-(1-methylethyl)-6-[[5-methyl-3-(trifluoromethyl)-1H-pyrazol-4-yl]methyl]-thieno[2,3-d]pyrimidine-2,4 (1H, 3H)-dione], the proliferation result with preadipocytes (3T3-L1) is “no effect on proliferation”. Moreover, the intracellular pyruvate levels entry in test [1] (after 24 hr) is listed as “not significantly altered”. For the same molecule, in test [1] (first 8 hr of treatment), the intracellular pyruvate entry was “significant increase”. Besides, the total triglyceride content entry in test [2] (pretreated 1 μM 24 hr and 72 hr, then cultured 72 hr with 100 nM insulin) is reported as “did not reach statistical significance”; in test [2] (pretreated 1 μM 48 hr, then cultured 72 hr with 100 nM insulin), “significantly more triglycerides”; in test [2] (pretreated 1 μM up to 72 hr, then cultured 72 hr without insulin) it was “significantly more triglycerides”. In addition, the insulin-stimulated glucose uptake entry with 3T3-L1-shScramble cells was “augmented”. Moreover, the “intracellular glycerol levels (lipolysis)” value in test [3] is listed as “significantly increased”.
